The text below walks through data of ChEMBL document CHEMBL1128384, “Cardioselective antiischemic ATP-sensitive potassium channel openers. 2. Structure-activity studies on benzopyranylcyanoguanidines: modification of the benzopyran ring” (J Med Chem, 1995).

Assay type in all cases: functional
Experiment [1] is filed under the species Rattus norvegicus. As to the kind of experiment: Vasorelaxant potency was assessed by measurement of inhibition of methoxamine-contracted rat aorta.
The species entered for experiment [2] is Rattus norvegicus. The experiment is described as follows: In vitro anti-ischemic potency was determined by measurement of concentration necessary for increase in time to contracture by 25% in the globally ischemic rat hearts.
Experiment [3] is described as follows: Ratio of anti-ischemic potency and vasorelaxant potency in rat.
The species entered for experiment [4] is Rattus norvegicus. The experiment is described as follows: Antiischemic potency was determined by increase in time to contracture at a concentration of 10 uM in the globally ischemic rat hearts.

SMILES strings stand for the structures. pIC50: −log10 of the molar value.

Turning to `CC1(C)Oc2cc(-c3ncco3)c(-c3ncco3)cc2[C@@H](NC(=O)Nc2ccccc2)[C@@H]1O`, in the experiment listed under Rattus norvegicus [1], the negative-log IC50 (pIC50) (in general, the IC50 on a negative log10 scale, so that one unit is a factor of ten) is 5.85. Also, the EC25 (in general, the concentration needed for an effect of 25%) in the experiment filed under Rattus norvegicus [2] came out at 13 µM. In experiment [3], the Ratio stood at 9.3.

In turn, `CC1(C)C[C@H](/N=C(\NC#N)Nc2ccccc2)c2cc(C#N)ccc21` gave a pIC50 in the experiment listed under Rattus norvegicus [1] of 5.59. For the same compound, the 25% effect level in the experiment listed under Rattus norvegicus [2] (EC25) was put at 22 µM. The Ratio in experiment [3] turned out to be 8.5.

In the case of `CC1(C)C[C@H](/N=C(\NC#N)Nc2ccccc2)c2cc(C#N)ccc2O1`, in the experiment filed under Rattus norvegicus [1], the negative logarithm of the IC50 (pIC50) is 4.85. In the experiment listed under Rattus norvegicus [4], the Increase worked out at 0%.

For the compound `CC1(C)C=C(NC(=O)Nc2ccccc2)c2cc(C#N)ccc2O1`, in the experiment filed under Rattus norvegicus [1], the negative logarithm of the IC50 (pIC50) is 4.77. In the experiment listed under Rattus norvegicus [4], the Increase is 7%.

Compound `CC(=O)O[C@H]1[C@H](NC(=O)Nc2ccccc2)c2cc(C#N)ccc2OC1(C)C` had a pIC50 in the experiment filed under Rattus norvegicus [1] of 5.36. This compound also displayed an Increase in the experiment listed under Rattus norvegicus [4] of 3%.

`CC1(C)Oc2ccc(C#N)cc2[C@@H](NC(=O)Nc2ccccc2)[C@@H]1O`: the 25% effect level in the experiment listed under Rattus norvegicus [2] (EC25) was put at 5.1 µM.

As for `CC1(C)C[C@H](NC(=O)Nc2ccccc2)c2cc(C#N)ccc2O1`, the pIC50 in the experiment filed under Rattus norvegicus [1] is 5.74. This compound also gave a concentration for an effect of 25% (EC25) in the experiment filed under Rattus norvegicus [2] of 5.3 µM. In addition, the Ratio in experiment [3] was determined as 2.9.

Take `CC1(C)Oc2ccc(C#N)cc2[C@@H](NC(=O)Nc2ccccc2)[C@H]1O`: in the experiment listed under Rattus norvegicus [1], the pIC50 was 5.21. This compound registered an EC25 in the experiment listed under Rattus norvegicus [2] of 103 µM. For the same compound, the Ratio in experiment [3] is recorded as 16.5.

In the experiment listed under Rattus norvegicus [1], `CC1(C)C[C@H](NC(=O)Nc2ccccc2)c2cc(C#N)ccc21` had a negative-log IC50 (pIC50) of 5.89. Also, in the experiment listed under Rattus norvegicus [2], the 25% effect level (EC25) was put at 9.4 µM. Moreover, the Ratio in experiment [3] is 7.2.

In the experiment filed under Rattus norvegicus [1], `CC(=O)c1ccc2c(c1)[C@@H](NC(=O)Nc1ccccc1)[C@H](O)C(C)(C)O2` had a pIC50 of 5.92. Moreover, the 25% effect concentration (EC25) in the experiment filed under Rattus norvegicus [2] stood at 4.5 µM. For the same compound, in experiment [3], the Ratio came to 3.8.

In turn, `CC1(C)C=C(/N=C(\NC#N)Nc2ccccc2)c2cc(C#N)ccc2O1` showed a pIC50 in the experiment listed under Rattus norvegicus [1] of 5.16. Further, in the experiment listed under Rattus norvegicus [4], the Increase was 0%.

On to `CC1(C)c2ccc([N+](=O)[O-])cc2[C@@H](NC(=O)Nc2ccccc2)[C@@H]1O`, for which the pIC50 in the experiment filed under Rattus norvegicus [1] is 6.74. Further, in the experiment listed under Rattus norvegicus [2], the 25% effect level (EC25) was put at 6.5 µM. For the same compound, the Ratio in experiment [3] was determined as 36.1.

In the experiment filed under Rattus norvegicus [1], `CC1(C)Oc2ccc(C(F)(F)F)cc2[C@@H](NC(=O)Nc2ccccc2)[C@@H]1O` showed a pIC50 of 5.96. In the experiment listed under Rattus norvegicus [2], the 25% effect level (EC25) was put at 2.7 µM. The Ratio in experiment [3] is on record as 2.5.

In the experiment filed under Rattus norvegicus [4], `N#Cc1ccc2c(c1)[C@@H](NC(=O)Nc1ccccc1)[C@H](O)CO2` had an Increase of 6%.

In the case of `CC1(C)Oc2ccc(C#N)cc2[C@@H](/N=C(\NC#N)Nc2ccccc2)[C@H]1O` (relative stereo), the Increase in the experiment filed under Rattus norvegicus [4] is recorded as 9%.

Compound `CC1(C)Oc2cc(-c3ncco3)c(-c3ncco3)cc2[C@@H](/N=C(\NC#N)Nc2ccccc2)[C@@H]1O` (relative stereo) showed a pIC50 in the experiment filed under Rattus norvegicus [1] of 5.06. The compound further showed an Increase in the experiment filed under Rattus norvegicus [2] of 6%.

For the compound `CC1(C)Oc2ccc(C#N)cc2[C@@H](/N=C(\NC#N)Nc2ccccc2)[C@@H]1O` (relative stereo), the pIC50 in the experiment listed under Rattus norvegicus [1] is 5.85. The 25% effect level in the experiment filed under Rattus norvegicus [2] (EC25) was put at 11 µM. In experiment [3], the Ratio came out at 7.9.

Take `CC(=O)O[C@H]1[C@H](/N=C(\NC#N)Nc2ccccc2)c2cc(C#N)ccc2OC1(C)C` (relative stereo): in the experiment listed under Rattus norvegicus [1], the negative-log IC50 (pIC50) was 5.59. In the experiment listed under Rattus norvegicus [2], this compound showed a 25% effect concentration (EC25) of 6 µM. For the same compound, the Ratio in experiment [3] is 2.3.

`N#CN/C(=N\[C@@H]1c2cc(C#N)ccc2OC[C@H]1O)Nc1ccccc1` (relative stereo) had a negative logarithm of the IC50 (pIC50) in the experiment filed under Rattus norvegicus [1] of 3.71. This compound gave an Increase in the experiment listed under Rattus norvegicus [4] of 0%.

In the experiment listed under Rattus norvegicus [1], `CC(=O)c1ccc2c(c1)[C@@H](/N=C(\NC#N)Nc1ccccc1)[C@H](O)C(C)(C)O2` (relative stereo) had a pIC50 of 5.40. The compound also returned a 25% effect concentration (EC25) in the experiment listed under Rattus norvegicus [2] of 8.5 µM. In experiment [3], the Ratio is recorded as 2.1.

Compound `CC1(C)c2ccc([N+](=O)[O-])cc2[C@@H](/N=C(\NC#N)Nc2ccccc2)[C@@H]1O` (relative stereo) had an EC25 in the experiment filed under Rattus norvegicus [2] of 10.7 µM. Besides, the Ratio in experiment [3] is recorded as 18.8.

In the experiment listed under Rattus norvegicus [4], `CC1(C)Nc2ccc(C#N)cc2[C@@H](/N=C(\NC#N)Nc2ccccc2)[C@@H]1O` (relative stereo) had an Increase of 0%.

As for `CC1(C)Oc2ccc(C(F)(F)F)cc2[C@@H](/N=C(\NC#N)Nc2ccccc2)[C@@H]1O` (relative stereo), in the experiment filed under Rattus norvegicus [1], the negative logarithm of the IC50 (pIC50) was 5.04. Also, in the experiment filed under Rattus norvegicus [2], the EC25 worked out at 10 µM. For the same compound, the Ratio in experiment [3] came out at 0.5.

For `CC1(C)Oc2ccc(N)cc2[C@@H](/N=C(\NC#N)Nc2ccccc2)[C@@H]1O` (relative stereo), in the experiment listed under Rattus norvegicus [1], the pIC50 was 4.22. The Increase in the experiment filed under Rattus norvegicus [2] is 0%.

Turning to `CC1(C)Oc2ccc(C#N)cc2[C@@H](N2CCCC2=O)[C@@H]1O` [CROMAKALIM], it took 8.9 µM to reach the 25% level in the experiment listed under Rattus norvegicus [2] (EC25). The Ratio in experiment [3] amounted to 278.1.
